Assay results reported in patent publication US20130072430A1, “METHODS FOR TREATMENT OR PROPHYLAXIS OF KIDNEY OR LIVER DYSFUNCTION” (NPS PHARMACEUTICALS, INC., priority 2010, published 2013).

Test system: Human patients with short bowel syndrome
Test: Example 1: liver diagnostic biomarkers (total bilirubin, ALT, AST, ALP) in short bowel syndrome patients, every four weeks for 24 weeks
Type: in vivo
Experimental: Human patients with short bowel syndrome were divided into three groups: a control group (16 total individuals) to receive placebo, an experimental group (35 total individuals) to receive teduglutide at 0.05 mg/kg/day throughout the study, and an experimental group (32 total individuals) to receive teduglutide at 0.1 mg/kg/day throughout the study. Patients were treated by subcutaneous injection of placebo or the appropriate dose of teduglutide. As individuals with short bowel syndrome are likely to experience associated liver and kidney disease, known biomarkers of liver and kidney function were monitored every four weeks, for 24 weeks. The liver biomarkers tested included total bilirubin, ALT and AST and ALP. The kidney biomarkers tested included urea nitrogen, creatinine and GFR. Before administration of placebo or teduglutide, diagnostic biomarker levels were tested to establish a baseline for each individual.
To visualize the effect of GLP-2 on the levels of the diagnostic biomarkers, the average change from baseline was calculated for the placebo and teduglutide treated groups for each visit after a baseline was established. The average change from baseline of each group is depicted in FIGS. […]. The numerical figures for each diaanostic biomarker at each time point are depicted in Table 1.
The efficacy of teduglutide in treating liver dysfunction was further tested by sorting the data into two groups: individuals with abnormal baseline values of liver diagnostic biomarkers; and individuals with normal baseline values of liver diagnostic biomarkers. The mean diagnostic biomarker change from baseline for these two groups is shown for ALT (FIGS. 5 and 6) and AST (FIGS. 7 and 8). […] These changes were significant when compared to baseline levels for the group, and when compared to placebo (see FIGS. 5 and 7).
The raw data for this sorting is reproduced in Table 2 below.

[1] = Week 12, range −5%<= and <=5%, teduglutide 0.05 mg/kg/day
[2] = Week 12, range −5%<= and <=5%, teduglutide 0.1 mg/kg/day
[3] = Week 16, range <−5%, teduglutide 0.05 mg/kg/day
[4] = Week 16, range <−5%, teduglutide 0.1 mg/kg/day
[5] = Week 16, range >5%, teduglutide 0.05 mg/kg/day
[6] = Week 16, range >5%, teduglutide 0.1 mg/kg/day
[7] = Week 16, range −5%<= and <=5%, teduglutide 0.05 mg/kg/day
[8] = Week 16, range −5%<= and <=5%, teduglutide 0.1 mg/kg/day
[9] = Week 20, range <−5%, teduglutide 0.05 mg/kg/day
[10] = Week 20, range <−5%, teduglutide 0.1 mg/kg/day
[11] = Week 20, range >5%, teduglutide 0.05 mg/kg/day
[12] = Week 20, range >5%, teduglutide 0.1 mg/kg/day
[13] = Week 20, range −5%<= and <=5%, teduglutide 0.05 mg/kg/day
[14] = Week 20, range −5%<= and <=5%, teduglutide 0.1 mg/kg/day
[15] = Week 24, range <−5%, teduglutide 0.05 mg/kg/day
[16] = Week 24, range <−5%, teduglutide 0.1 mg/kg/day
[17] = Week 24, range >5%, teduglutide 0.05 mg/kg/day
[18] = Week 24, range >5%, teduglutide 0.1 mg/kg/day
[19] = Week 24, range −5%<= and <=5%, teduglutide 0.05 mg/kg/day
[20] = Week 24, range −5%<= and <=5%, teduglutide 0.1 mg/kg/day
[21] = compared to baseline and to placebo

## CC[C@H](C)[C@H](NC(=O)[C@H](Cc1ccccc1)NC(=O)[C@H](CC(=O)O)NC(=O)[C@H](CCCNC(=N)N)NC(=O)[C@H](C)NC(=O)[C@H](C)NC(=O)[C@H](CC(C)C)NC(=O)[C@H](CC(N)=O)NC(=O)[C@H](CC(=O)O)NC(=O)[C@H](CC(C)C)NC(=O)[C@@H](NC(=O)[C@@H](NC(=O)[C@H](CC(N)=O)NC(=O)[C@H](CCSC)NC(=O)[C@H](CCC(=O)O)NC(=O)[C@H](CC(=O)O)NC(=O)[C@H](CO)NC(=O)[C@H](Cc1ccccc1)NC(=O)[C@H](CO)NC(=O)CNC(=O)[C@H](CC(=O)O)NC(=O)CNC(=O)[C@@H](N)Cc1c[nH]cn1)[C@@H](C)O)[C@@H](C)CC)C(=O)N[C@@H](CC(N)=O)C(=O)N[C@@H](Cc1c[nH]c2ccccc12)C(=O)N[C@@H](CC(C)C)C(=O)N[C@H](C(=O)N[C@@H](CCC(N)=O)C(=O)N[C@H](C(=O)N[C@@H](CCCCN)C(=O)N[C@H](C(=O)N[C@H](C(=O)N[C@@H](CC(=O)O)C(=O)O)[C@@H](C)O)[C@@H](C)CC)[C@@H](C)O)[C@@H](C)CC [teduglutide]
[1]
  ALT (SGPT) change from baseline: patients in range, n(%): 4(11.4%)
  AST (SGOT) change from baseline: patients in range, n(%): 3(8.6%)
  TOTAL BILIRUBIN change from baseline: patients in range, n(%): 4(11.4%)
[2]
  ALKALINE PHOSPHATASE change from baseline: patients in range, n(%): 1(3.1%)
  ALT (SGPT) change from baseline: patients in range, n(%): 2(6.3%)
  AST (SGOT) change from baseline: patients in range, n(%): 3(9.4%)
  TOTAL BILIRUBIN change from baseline: patients in range, n(%): 6(18.8%)
[3]
  ALKALINE PHOSPHATASE change from baseline: patients in range, n(%): 20(57.1%)
  AST (SGOT) change from baseline: patients in range, n(%): 14(40.0%)
  TOTAL BILIRUBIN change from baseline: patients in range, n(%): 14(40.0%)
[4]
  ALKALINE PHOSPHATASE change from baseline: patients in range, n(%): 21(65.6%)
  AST (SGOT) change from baseline: patients in range, n(%): 18(56.3%)
  TOTAL BILIRUBIN change from baseline: patients in range, n(%): 14(43.8%)
[5]
  ALKALINE PHOSPHATASE change from baseline: patients in range, n(%): 6(17.1%)
  ALT (SGPT) change from baseline: patients in range, n(%): 12(34.3%)
  AST (SGOT) change from baseline: patients in range, n(%): 8(22.9%)
  TOTAL BILIRUBIN change from baseline: patients in range, n(%): 9(25.7%)
[6]
  ALKALINE PHOSPHATASE change from baseline: patients in range, n(%): 7(21.9%)
  ALT (SGPT) change from baseline: patients in range, n(%): 9(28.1%)
  AST (SGOT) change from baseline: patients in range, n(%): 8(25.0%)
  TOTAL BILIRUBIN change from baseline: patients in range, n(%): 6(18.8%)
Week 16, range >−5%, teduglutide 0.05 mg/kg/day
  ALT (SGPT) change from baseline: patients in range, n(%): 16(45.7%)
Week 16, range >−5%, teduglutide 0.1 mg/kg/day
  ALT (SGPT) change from baseline: patients in range, n(%): 19(59.4%)
[7]
  ALKALINE PHOSPHATASE change from baseline: patients in range, n(%): 2(5.7%)
  ALT (SGPT) change from baseline: patients in range, n(%): 0(0.0%)
  AST (SGOT) change from baseline: patients in range, n(%): 6(17.1%)
  TOTAL BILIRUBIN change from baseline: patients in range, n(%): 3(8.6%)
[8]
  ALKALINE PHOSPHATASE change from baseline: patients in range, n(%): 2(6.3%)
  ALT (SGPT) change from baseline: patients in range, n(%): 2(6.3%)
  AST (SGOT) change from baseline: patients in range, n(%): 3(9.4%)
  TOTAL BILIRUBIN change from baseline: patients in range, n(%): 8(25.0%)
[9]
  ALKALINE PHOSPHATASE change from baseline: patients in range, n(%): 22(62.9%)
  ALT (SGPT) change from baseline: patients in range, n(%): 17(48.6%)
  AST (SGOT) change from baseline: patients in range, n(%): 17(48.6%)
  TOTAL BILIRUBIN change from baseline: patients in range, n(%): 12(34.3%)
[10]
  ALKALINE PHOSPHATASE change from baseline: patients in range, n(%): 19(59.4%)
  ALT (SGPT) change from baseline: patients in range, n(%): 19(59.4%)
  AST (SGOT) change from baseline: patients in range, n(%): 16(50.0%)
  TOTAL BILIRUBIN change from baseline: patients in range, n(%): 14(43.8%)
[11]
  ALKALINE PHOSPHATASE change from baseline: patients in range, n(%): 4(11.4%)
  ALT (SGPT) change from baseline: patients in range, n(%): 9(25.7%)
  AST (SGOT) change from baseline: patients in range, n(%): 6(17.1%)
  TOTAL BILIRUBIN change from baseline: patients in range, n(%): 7(20.0%)
[12]
  ALKALINE PHOSPHATASE change from baseline: patients in range, n(%): 9(28.1%)
  ALT (SGPT) change from baseline: patients in range, n(%): 8(25.0%)
  AST (SGOT) change from baseline: patients in range, n(%): 9(28.1%)
  TOTAL BILIRUBIN change from baseline: patients in range, n(%): 9(28.1%)
[13]
  ALKALINE PHOSPHATASE change from baseline: patients in range, n(%): 1(2.9%)
  ALT (SGPT) change from baseline: patients in range, n(%): 1(2.9%)
  AST (SGOT) change from baseline: patients in range, n(%): 4(11.4%)
  TOTAL BILIRUBIN change from baseline: patients in range, n(%): 6(17.1%)
[14]
  ALKALINE PHOSPHATASE change from baseline: patients in range, n(%): 1(3.1%)
  ALT (SGPT) change from baseline: patients in range, n(%): 2(6.3%)
  AST (SGOT) change from baseline: patients in range, n(%): 3(9.4%)
  TOTAL BILIRUBIN change from baseline: patients in range, n(%): 6(18.8%)
[15]
  ALKALINE PHOSPHATASE change from baseline: patients in range, n(%): 21(60.0%)
  ALT (SGPT) change from baseline: patients in range, n(%): 18(51.4%)
  AST (SGOT) change from baseline: patients in range, n(%): 17(48.6%)
  TOTAL BILIRUBIN change from baseline: patients in range, n(%): 8(22.9%)
[16]
  ALKALINE PHOSPHATASE change from baseline: patients in range, n(%): 20(62.5%)
  ALT (SGPT) change from baseline: patients in range, n(%): 18(56.3%)
  AST (SGOT) change from baseline: patients in range, n(%): 15(46.9%)
  TOTAL BILIRUBIN change from baseline: patients in range, n(%): 11(34.4%)
[17]
  ALKALINE PHOSPHATASE change from baseline: patients in range, n(%): 4(11.4%)
  ALT (SGPT) change from baseline: patients in range, n(%): 4(11.4%)
  AST (SGOT) change from baseline: patients in range, n(%): 6(17.1%)
  TOTAL BILIRUBIN change from baseline: patients in range, n(%): 10(28.6%)
[18]
  ALKALINE PHOSPHATASE change from baseline: patients in range, n(%): 5(15.6%)
  ALT (SGPT) change from baseline: patients in range, n(%): 11(34.4%)
  AST (SGOT) change from baseline: patients in range, n(%): 11(34.4%)
  TOTAL BILIRUBIN change from baseline: patients in range, n(%): 10(31.3%)
[19]
  ALKALINE PHOSPHATASE change from baseline: patients in range, n(%): 0(0.0%)
  ALT (SGPT) change from baseline: patients in range, n(%): 4(11.4%)
  AST (SGOT) change from baseline: patients in range, n(%): 3(8.6%)
  TOTAL BILIRUBIN change from baseline: patients in range, n(%): 4(11.4%)
[20]
  ALKALINE PHOSPHATASE change from baseline: patients in range, n(%): 4(12.5%)
  ALT (SGPT) change from baseline: patients in range, n(%): 0(0.0%)
  AST (SGOT) change from baseline: patients in range, n(%): 3(9.4%)
  TOTAL BILIRUBIN change from baseline: patients in range, n(%): 6(18.8%)
Beginning at 4 weeks after commencement of treatment
  fraction of individuals experiencing a decrease of more than 5% in ALT versus placebo: greater fraction of individuals experiencing a decrease of more than 5%
[21]
  ALT change from baseline in patients with abnormal baseline values (FIG. 5): statistically significant improvements
  AST change from baseline in patients with abnormal baseline values (FIG. 7): statistically significant improvements
Groups receiving teduglutide
  average level of ALP relative to baseline (FIG. 4): decreased relative to baseline for the entire period of the study
  percent of individuals experiencing an increase of greater than 5% in ALP or ALT versus placebo: effective prophylactic against increases in biomarkers associated with liver dysfunction
Groups receiving teduglutide, maintained for the entire duration of the study
  average decrease of the level of ALT from baseline (FIG. 1): about 10 U/L
Within 4 weeks of the beginning of treatment, groups receiving teduglutide
  individuals experiencing a decrease in ALP greater than 5% from baseline: roughly 60%
